Reference: patent US20170166974A1, “METHOD FOR THE TREATMENT OF MULTIPLE MYELOMA” (Erasmus University Medical CEnter Rotherdam, priority 2014, published 2017)

System: multiple myeloma patients
Assay: Survival analysis (PFS and OS) of multiple myeloma patients by molecular cluster, HOVON-65/GMMG-HD4 phase III trial, PAD vs VAD
Assay type: in vivo, human
Description: Survival analysis was performed on a group of 301 MM patients, treated with Bortezomib (treated with PAD, a combination of bortezomib, adriamycin, and dexamethasone)) or conventional therapy (treated with VAD, a combination of vincristine, adriamycin, and dexamethasone). The patient group was stratified into ten clusters (Table 1).
A total number of 833 patients were included in a large prospective, randomized, phase III trial (HOVON-65/GMMG-HD4). Patients were randomly assigned to three cycles of induction treatment with vincristine, doxorubicin, and dexamethasone (VAD), or Bortezomib, doxorubicin, and dexamethasone (PAD). Both groups received high-dose melphalan with autologous stem-cell rescue followed by maintenance treatment with thalidomide (group assigned to VAD) or Bortezomib (group assigned to PAD) for 2 years (Sonneveld et al., J. Clin. Oncol. Vol. 30, 24:2946-2955, 2012).
The gene expression dataset GSE19784 was used, derived from patients included in the HOVON-65/GMMG-HD4 trial (Broyl et al., Blood 2010 116:2543-2553). A total number of 320 patients were included in the molecular classification and follow-up data were available for 319 patients. Clusters with less than ten patients were not included in this study, the total number of patients was, therefore, 301 (Table 1). Progression-free survival (PFS) was calculated from randomization until progression, relapse or death, whichever came first. Patients who received a non-myeloablative allogeneic stem cell transplantation (AlloSCT) were censored at the date of AlloSCT. Overall survival (OS) was measured from randomization until death from any cause. Patients alive at the date of last contact were censored. The median follow-up was 41 months. Survival analysis was performed using the SPSS software. Kaplan
Meier analysis was performed using the log rank test to assess for significance in survival time between clusters.

`CC(C)C[C@H](NC(=O)[C@H](Cc1ccccc1)NC(=O)c1cnccn1)B(O)O` [Bortezomib] was tested, and the “median PFS” value (CD-2 cluster) was 32 months, the “difference in median PFS, conventional vs Bortezomib” value (CTA cluster) was “no difference” and the “median OS” value (MF cluster) was 54 months. For the same molecule, the “median PFS” value (MF cluster) was 27 months, the “PFS longer than in conventional treatment group” value (MS cluster) was 6 months and the “median OS” value (MS cluster) was over 41 months. The “median PFS” value (Myeloid cluster) was 32 months, the “median PFS” value (NF-κB cluster) was 32 months and the “median OS” value (PR cluster) was 22 months. The “median PFS” value (PR cluster) was 19 months and the “difference in median PFS, conventional vs Bortezomib” value (hyperdiploid cluster) was “no difference”.
